# Data reported in patent US8940885B2, “Cytotoxic nucleotides for targeted therapeutics” (Wake Forest University Health Sciences, priority 2006, dated 2015).
# Experiments:
# [1] = biological target: T1, extracellular domain of PSMA (xPSM) (Homo sapiens, UniProt Q04609); conditions: cited from earlier work
# T1 construct: express the 706 amino acids comprising the extracellular domain of PSMA from Sf-9 (insect) cells using baculovirus; made in house; host or cells: Sf-9 insect cells, baculovirus (pBacGus3 vector); cDNA from LNCaP cells
# T1 sequence (Q04609 44-750 limits assumed): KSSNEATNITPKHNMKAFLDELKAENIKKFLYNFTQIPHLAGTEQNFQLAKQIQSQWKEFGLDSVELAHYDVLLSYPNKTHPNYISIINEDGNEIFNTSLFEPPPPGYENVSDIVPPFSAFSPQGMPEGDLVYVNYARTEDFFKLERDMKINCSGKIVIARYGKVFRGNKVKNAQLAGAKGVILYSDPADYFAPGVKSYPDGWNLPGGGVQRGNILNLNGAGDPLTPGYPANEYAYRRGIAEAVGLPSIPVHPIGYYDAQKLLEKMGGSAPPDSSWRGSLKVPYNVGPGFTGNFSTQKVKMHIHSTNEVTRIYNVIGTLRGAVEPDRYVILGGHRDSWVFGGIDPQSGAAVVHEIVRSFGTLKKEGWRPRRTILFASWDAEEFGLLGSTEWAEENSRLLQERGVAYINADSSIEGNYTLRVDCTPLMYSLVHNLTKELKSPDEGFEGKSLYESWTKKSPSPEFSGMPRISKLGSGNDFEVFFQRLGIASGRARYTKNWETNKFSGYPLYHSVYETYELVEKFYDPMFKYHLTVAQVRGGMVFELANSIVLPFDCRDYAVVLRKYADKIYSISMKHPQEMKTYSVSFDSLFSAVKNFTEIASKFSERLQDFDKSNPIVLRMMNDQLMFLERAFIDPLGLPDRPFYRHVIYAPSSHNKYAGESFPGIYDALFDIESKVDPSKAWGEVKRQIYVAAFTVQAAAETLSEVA
# [2] = UV thermal melt (hyperchromicity); format: physicochemical
# Procedure: The structural characteristics of the parent aptamer and modified aptamers were determined using circular dichroism (CD) spectroscopy and ultraviolet (UV) hyperchromicity measurements. The data for the CD spectroscopy are shown in FIGS. 4A (modified aptamer) and 4B (parent aptamer). The circular dichroism curve acquired before thermal melting is in blue and that obtained post-melt is green. A maximum positive ellipticity is observed at 270 nm consistent with a highly folded structure, probably consisting of A-form helices. The circular dichroism spectra for the modified aptamers are indistinguishable from circular dichroism spectra for the parent aptamer. The UV thermal melt data is shown in FIGS. 4C (modified aptamer) and 4D (parent aptamer). The melting temperature for parent aptamer and the modified aptamers is about 55° C.
# [3] = test system: PC3 prostate cancer cells
# PC3 cells = assay: Cytotoxicity of FdUMP[10], laboratory studies and NCI 60 cell line screen; format: cell-based, human
# prostate cancer cells [4] = test system: prostate cancer cells
# [5] = test system: DU145 prostate cancer cells
# DU145 PC cells = assay: Cytotoxicity of FdUMP[10], laboratory studies and NCI 60 cell line screen; format: cell-based
# LNCaP cells = assay: as above; format: cell-based, human
# prostate cancer cells [6] = test system: prostate cancer cells; remark: listed apart in the source
# colon cancer cells = assay: Uptake of FdUMP[10] multimer in other cancer cells; format: cell-based; conditions: other types of cancer cells (e.g. colon cancer)
# [7] = test system: PC cells and normal prostatic epithelial cells; assay: Trypan blue exclusion assays; format: cell-based, human
# Procedure: The cytotoxicity of the candidate modified aptamers is also evaluated with regard to prostate cells that have been obtained from normal prostate tissue derived from radical prostatectomies. A procedure for establishing primary human epithelial cell cultures from the disease-free regions of the tissue (based on histology) has been described (Peehl et al., In Vitro Cell Dev. Biol. 22: 90 (1986); Peehl et al., In Vitro Cell Dev. Biol. 24: 530-536 (1988); Barreto et al., Cancer Epidemiol. Biomarkers Prey. 9: 265-270 (2000). The cultures are grown in MCDB 105 medium (Sigma, St. Louis, Mo.) that has been supplemented with growth factors and hormones as described previously (Peehl et al., In Vitro Cell Dev Biol 22: 90 (1986)). Trypan blue exclusion is used as a marker of viable cells. The data are analyzed to identify those candidate modified aptamers sequences that are highly efficient at killing PC cells that express xPSM, but that are not cytotoxic towards normal prostate cells. Candidate modified aptamers that display the greatest differential cytotoxicity are further developed as drugs for the treatment of human PC.
# (but not 5FU) is currently under investigation.
substance,measurement,setting,value
"5′rGGGAGGACGAUGCGGAUCAGCCAUGUUUACGUCAC UCCUUGUCAAUCCUCAUCGGC-3′ (GGGAGGACGAUGCGGAUCAGCCAUGUUUACGUCACUCCUUGUCAAUCCUCAUCGGC; RNA, backbone not given here) [A10-3]",binding affinity for xPSM,[1],high affinity
same,stability of folded structure,[2]; 37° C.,stable at 37 °C
same,melting temperature,[2]; UV thermal melt,about 55 °C
FdUMP[10],"cytotoxicity relative to monomeric fluoropyrimidines (5FU, FdU, FdUMP)",[3],substantially more cytotoxic
same,sensitivity of PC3 cells,PC3 cells,highly sensitive
same,times more potent than 5FU,PC3 cells; PC3 cells,631 times
same,effect of phosphatase or nucleotidase inhibitor on cytotoxicity,prostate cancer cells [4],Neither inhibitor substantially reduced the cytotoxicity
same,uptake in multimeric form,prostate cancer cells [4]; prostate cancer cells,efficiently take up
same,"cytotoxicity relative to monomeric fluoropyrimidines (5FU, FdU, FdUMP)",[5],substantially more cytotoxic
same,times more potent than 5FU,DU145 PC cells; DU145 PC cells,"1,585 time"
same,GI50,"DU145 PC cells; DU145 cells, GI50 value from the NCI 60 cell line screen, read-out: IC50 (the source's name)",5.01 nM
same,sensitivity of LNCaP cells,LNCaP cells,highly sensitive
same,tolerability in vivo,,very well-tolerated
same,cytotoxicity relative to 5FU or FdU,prostate cancer cells [6],substantially more cytotoxic
same,drug concentrations at which cytotoxic towards prostate cancer cells,prostate cancer cells [6],10 to 100 nM
same,uptake of multimer relative to prostate cancer cells,colon cancer cells,less efficient
same,differential sensitivity between PC cells and normal prostatic epithelial cells,[7],large differential sensitivity
